Measured values taken from article PMC11467737, “Osteocalcin binds to a GPRC6A Venus fly trap allosteric site to positively modulate GPRC6A signaling” (FASEB BioAdvances, 2024).
Positions count from the first letter of the chain named. Bridge positions count the residues as written; N and C are the ends. Ends that are not written are not given here.

Columns and labels:
human GPRC6A isoform 1 = biological target: T1, human GPRC6A isoform 1 (Homo sapiens, UniProt Q5T6X5); experiment: cAMP accumulation in HEK-293 cells transfected with human GPRC6A isoform 1 (wild-type, full length); format: cell-based; details: for cAMP accumulation by synthesized human Ocn fragments: fragments at 20 nM, Figure 3C / S5C
T1 construct: expressed in transfected cells; host or cells: HEK-293, pcDNA3-hGPRC6A
T1 sequence (Q5T6X5 19-926): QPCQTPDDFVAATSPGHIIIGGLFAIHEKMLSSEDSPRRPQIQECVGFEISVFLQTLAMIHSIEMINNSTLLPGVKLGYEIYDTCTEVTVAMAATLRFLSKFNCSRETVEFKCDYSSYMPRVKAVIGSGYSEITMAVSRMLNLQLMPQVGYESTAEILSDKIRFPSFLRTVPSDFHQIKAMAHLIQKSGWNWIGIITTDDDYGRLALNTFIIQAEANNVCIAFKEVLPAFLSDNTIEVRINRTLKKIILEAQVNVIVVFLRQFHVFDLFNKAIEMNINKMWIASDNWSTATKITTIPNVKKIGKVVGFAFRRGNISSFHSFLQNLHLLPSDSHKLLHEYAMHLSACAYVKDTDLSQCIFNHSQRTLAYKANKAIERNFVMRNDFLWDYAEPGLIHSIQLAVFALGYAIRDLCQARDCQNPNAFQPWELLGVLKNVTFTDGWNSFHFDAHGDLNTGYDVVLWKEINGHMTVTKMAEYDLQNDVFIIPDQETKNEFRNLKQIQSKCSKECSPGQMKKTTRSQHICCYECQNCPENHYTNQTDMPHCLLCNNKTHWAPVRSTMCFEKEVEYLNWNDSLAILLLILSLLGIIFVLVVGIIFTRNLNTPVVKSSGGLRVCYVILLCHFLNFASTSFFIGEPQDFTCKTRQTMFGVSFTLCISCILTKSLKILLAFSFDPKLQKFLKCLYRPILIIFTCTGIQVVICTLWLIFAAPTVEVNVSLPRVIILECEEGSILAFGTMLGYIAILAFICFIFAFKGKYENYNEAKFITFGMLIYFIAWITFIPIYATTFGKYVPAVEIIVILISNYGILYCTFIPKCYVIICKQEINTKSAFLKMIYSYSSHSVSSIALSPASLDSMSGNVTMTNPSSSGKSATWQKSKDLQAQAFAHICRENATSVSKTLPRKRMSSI
Experimental: HEK‐293 transfected with human GPRC6A isoform cDNA plasmids cells (10^5 cells/well)[30] were cultured in 24‐well plates in DMEM supplemented with 10% fetal bovine serum and 1% penicillin/streptomycin (100 U/mL of penicillin and 100 μg/mL of streptomycin) for 48 h followed by 4 h incubation in DMEM/F12 containing 0.1% BSA and 0.5 mM IBMX to achieve quiescence and preventing cAMP degradation. Quiescent cells were treated with vehicle control, various ligands at concentration as indicated for 40 min at 37°C. Then, the reaction was stopped, and the cells lysed with 0.5 mL 0.1 N HCl. cAMP levels were measured by using Cyclic AMP EIA kit (Cayman Chemical; Ann Arbor, MA, USA) following the manufacture's protocol.

H355P hGPRC6A = biological target: T2, H355P hGPRC6A (Homo sapiens, UniProt Q5T6X5, H355P); experiment: ERK activation in HEK-293 cells transfected with H355P hGPRC6A; format: cell-based; details: H355P mutant; for ERK activation by Ocn small fragments: fragment at 20 nM, Figure 6D
T2 construct: expressed in transfected cells; host or cells: HEK-293, pcDNA3
T2 sequence (Q5T6X5 19-926 H355P): T1 sequence (Q5T6X5 19-926) with H337P
Experimental: All culture reagents were from Invitrogen (Waltham, MA, USA). Human embryonic kidney HEK‐293 cells were obtained from American Type Culture Collection and cultured in DMEM medium supplemented with 10% fetal bovine serum and 1% Penicillin/Streptomycin (P/S). Briefly, HEK‐293 cells transfected with/without human GPRC6A isoforms cDNA plasmids were starved by overnight incubation in serum‐free DMEM/F12 containing 0.1% bovine serum albumin (BSA) and stimulated with various ligands at different doses. ERK activation was assessed 20 min after treatment by using ERK1/2 (phospho‐T203/Y204) ELISA Kit (Invitrogen; Waltham, MA, USA) corrected for the amount of total ERK using ERK1/2 (Total) ELISA Kit (Invitrogen; Waltham, MA, USA) to measure ERK levels.
In‐vitro mutagenesis by PCR‐mediated recombination QuikChange II XL Site‐Directed Mutagenesis Kit (Agilent) was performed using the cDNA of human GPRC6A cloned in the vector pcDNA3 (Invitrogen) as a template. The primer sets are as follows. K352E.sen: […]; K352E.antisen: […]; H355P.sen: […]; H355P.antisen: […]; K352E/H355P.sen: […]; and K352E/H355P.antisen: […]. All mutants were confirmed by sequencing.

[1] = HEK-293 with pcDNA3-hGPRC6A, 40 min

| Substance | cAMP accumulation, dose response of full-length Ocn (human GPRC6A isoform 1; WT hGPRC6A, Figure 6A) | Ocn-induced cAMP accumulation, dose response (human GPRC6A isoform 1; isoform 1, Ocn 1.73, 8.65, 17.3, 26.0 nM, 1 mM calcium, 40 min, Figure 2C) | ERK phosphorylation, dose response of full-length Ocn, versus wild-type receptor (H355P hGPRC6A; Figure 6B) | cAMP accumulation by synthesized human Ocn fragments (human GPRC6A isoform 1; [1]) | ERK activation by Ocn small fragments (H355P hGPRC6A) | Potency compared to full-length Ocn 1–49, cAMP dose response (human GPRC6A isoform 1; HEK-293 with pcDNA3-hGPRC6A, Figure S5A) |
| --- | --- | --- | --- | --- | --- | --- |
| osteocalcin (YLYQWLGAPVPYPDPLEPRREVCELNPDCDELADHIGFQEAYRRFYGPV; not fully specified; ends and bridges not checked; UniProt P02818 52-100, looked up) [Ocn 1–49, full human Ocn (49 aa) synthesized by BioMatik; methods also describe decarboxylated Ocn purified from bovine tibial bone, reference compound] | dose‐dependently stimulated | activated GPRC6A isoform 1 in a dose dependent manner | significantly decreased |  |  |  |
| RFYGPV [Ocn 44–49, synthesized human Ocn C‐terminal hexapeptide] |  |  |  | high activity | significantly attenuated |  |
| REVCELNPDC (disulfide 4-10 (inferred)) [Ocn 20–29, synthesized human Ocn decapeptide fragment located in the middle of the protein] |  |  |  | high activity | no response | greater potency |
